Measurements as given in PubChem BioAssay (NCI).
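Step 1: Grow cells in 96-well plates. Step 2: Expose to compound for 48 hours at 5 concentrations. Step 3: Interpolate endpoints linearly; if unreached, use highest concentration. GI50: concentration for 50% inhibition of growth. TGI: total growth inhibition.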

Legend:
Test in all cases: inhibition of tumour cell growth, NCI panel, 48 h
ACHN renal = test system: ACHN renal
HOP-62 NSCLC = test system: HOP-62 NSCLC
HS 578T breast = test system: HS 578T breast
M14 melanoma = test system: M14 melanoma
MALME-3M melanoma = test system: MALME-3M melanoma
NCI-H226 lung = test system: NCI-H226 lung
RXF 393 renal = test system: RXF 393 renal
SNB-19 CNS = test system: SNB-19 CNS
T-47D breast = test system: T-47D breast
UO-31 renal = test system: UO-31 renal

Structure (SMILES)	GI50 (ACHN renal)	TGI (ACHN renal)	GI50 (HOP-62 NSCLC)	TGI (HOP-62 NSCLC)	GI50 (HS 578T breast)	TGI (HS 578T breast)	GI50 (M14 melanoma)	TGI (M14 melanoma)	GI50 (MALME-3M melanoma)	TGI (MALME-3M melanoma)	GI50 (NCI-H226 lung)	TGI (NCI-H226 lung)	GI50 (RXF 393 renal)	TGI (RXF 393 renal)	GI50 (SNB-19 CNS)	TGI (SNB-19 CNS)	GI50 (T-47D breast)	TGI (T-47D breast)	GI50 (UO-31 renal)	TGI (UO-31 renal)
O=C(c1ccccc1)c1nn(-c2ccc(Cl)cc2)c2nc3nc(-c4ccccc4)cc(=O)n3nc12	37.4 µM	> 100 µM	32.3 µM	> 100 µM	28.9 µM	> 100 µM	31.6 µM	> 100 µM	3.08 µM	65.1 µM	> 100 µM	> 100 µM	68.9 µM	> 100 µM	39.9 µM	> 100 µM	65.9 µM	> 100 µM	25.7 µM	> 100 µM
COc1c(Cl)ccc(Cl)c1C(=O)NNC(=O)c1c(Cl)c(Cl)c(Cl)c(Cl)c1-c1nc2ccc(C(=O)c3ccccc3)cc2[nH]1		> 100 µM		> 100 µM		> 100 µM		> 100 µM		> 100 µM		> 100 µM		> 100 µM		> 100 µM		> 100 µM		> 100 µM
O=S(=O)(c1cc(Cl)ccc1Cl)N1CCN(c2ccc(Cl)c(Cl)c2)CC1		95.9 µM		39.6 µM		> 100 µM		> 100 µM		> 100 µM		54.1 µM		52.2 µM		32.1 µM		> 100 µM		> 100 µM
COc1cc([C@@H]2c3cc4c(cc3[C@H](OC3OC5COC(C(C)C)OC5C(O)C3O)C3COC(=O)[C@@H]32)OCO4)cc(OC)c1O (stereo not given in full)		15.6 µM		24.4 µM		42.3 µM		24.3 µM		36 µM		24 µM		17.2 µM		30.1 µM		60.1 µM		22.3 µM
COc1ccc2c(c1)c1nn(CCN(C)C)c3ccc4c(=O)n(CCN(C)C)c(=O)n2c4c13		0.432 µM		0.217 µM		0.244 µM		0.324 µM		0.555 µM		1.1 µM		0.38 µM		0.635 µM		> 25.8 µM		0.329 µM
O=C(CCCN1CCC2(CC1)C(=O)NC(=O)N2c1ccccc1)c1ccc(F)cc1		> 100 µM		> 100 µM		> 100 µM		> 100 µM		> 100 µM		> 100 µM		> 100 µM		> 100 µM		> 100 µM		> 100 µM
COc1ccc(/C=C2\CN(C(=O)CCN3CCC(=NO)CC3)C/C(=C\c3ccc(OC)cc3)C2=O)cc1	1.95 µM	4.05 µM	2.03 µM	4.59 µM	3.64 µM	18.6 µM	2.04 µM	4.54 µM	2.5 µM	7.49 µM	2.51 µM	7.54 µM	1.68 µM	3.15 µM	2.58 µM	7.55 µM	2.57 µM	8.91 µM	1.59 µM	2.94 µM
CC(=O)Nc1ccc(Nc2cc(=O)n(C)c(=O)[nH]2)cc1		> 100 µM		> 100 µM		> 100 µM		> 100 µM		> 100 µM		> 100 µM		> 100 µM		> 100 µM		> 100 µM		> 100 µM
Cc1ccc(/C=C2\N=C(N3CCCCC3)NC2=O)cc1		> 100 µM		> 100 µM		> 100 µM		> 100 µM		> 100 µM		> 100 µM		> 100 µM		> 100 µM		> 100 µM		> 100 µM
Cc1cc(S(N)(=O)=O)c(SCc2nc(N)nc(N(C)C)n2)cc1Cl		> 10 µM		> 10 µM		> 10 µM		> 10 µM		> 10 µM		> 10 µM		> 10 µM		> 10 µM		> 10 µM		> 10 µM
O=C(NCCN1C(=O)CN=C(c2ccc(Cl)cc2)c2cc(Cl)ccc21)OCc1ccccc1		32.1 µM		38.2 µM		40.7 µM		34.9 µM		31.6 µM		35.5 µM		23.8 µM		50.8 µM		> 100 µM		24.7 µM
O=C(O)c1cccc(S(=O)(=O)NN2C(=O)CSC2c2ccccc2)c1 (stereo not given)		> 100 µM		> 100 µM		> 100 µM		> 100 µM		> 100 µM		> 100 µM		> 100 µM		> 100 µM		> 100 µM		> 100 µM
CC(NC1=CC(=O)c2ncccc2C1=O)C(O)c1ccccc1 (stereo not given)		43.7 µM		25.9 µM		25.1 µM		11 µM		4.97 µM		20.8 µM		22.2 µM		20 µM		56 µM		17.2 µM
COc1cc(N(CCC#N)CCC#N)ccc1/C(N=Nc1ccc(C)cc1)=N/NC(=O)c1cc(Br)ccc1O		> 100 µM		96.5 µM		> 100 µM		> 100 µM		> 100 µM		> 100 µM		65.6 µM		> 100 µM		47.3 µM		60.3 µM
CSCCC(NCc1c(O)ccc2ccc(=O)oc12)C(=O)O (stereo not given)		> 100 µM		> 100 µM		> 100 µM		> 100 µM		> 100 µM		> 100 µM		> 100 µM		> 100 µM		> 100 µM		> 100 µM
